Experimental data reported in patent publication US7781421B2, “Neuroactive 13, 24-cyclo-18, 21-dinorcholanes and structurally related pentacyclic steriods” (Washington University, priority 2003, dated 2010).
Like-named read-outs stand apart in the source and are kept apart here.

How the values were obtained:
[1] = test system: Xenopus laevis tadpoles; test: Tadpole loss of righting (LRR) and swimming (LSR) reflexes; format: in vivo; conditions: 3 h equilibration at room temperature; for EC50: read-out: LSR EC50 (loss of swimming response)
Method: Tadpole LRR was measured as described previously. (See, Wittmer, L. L., et al., Enantioselectivity of steroid-induced γ-aminobutyric acidA receptor modulation and anesthesia, Mol. Phar., 1996, 50:1581-1586). Briefly, groups of 10 early prelimb-bud stage Xenopus laevis tadpoles (Nasco, Fort Atkinson, Wis.) were placed in 100 mL of oxygenated Ringer's stock solution containing various concentrations of compound. Compounds were added from a 10 mM DMSO stock (final concentration of DMSO in test solutions ≦0.1%). After equilibrating at room temperature for 3 h, tadpoles were evaluated using the LRR and LSR behavioral endpoints. LRR was defined as failure of the tadpole to right itself within 5 sec after being flipped by a smooth glass rod. LSR was defined as failure of the tadpole to swim when touched by a smooth glass rod. In general, the tadpoles regained their righting and swimming reflexes when placed in fresh oxygenated Ringer's solution. Control beakers containing up to 0.6% DMSO produced no LRR or LSR in tadpoles.
Tadpole LRR and LSR concentration-response curves were fit using Sigma Plot version 3.0 to the Hill equation f=Rmax/{1+([conc]/EC50)^n}
where Rmax is the maximum effect, [conc] is the steroid concentration, EC50 is the half-maximal effective concentration, and n is the Hill coefficient.

[2] = molecular target: T1, rat α1β2γ2 GABAA Receptor (Rattus norvegicus, UniProt P18508+P62813+P63138, INS375LLRMFSFK); test: Xenopus oocyte two-electrode voltage-clamp electrophysiology; format: cell-based; conditions: for Oocyte electrophysiology, ratio of currents in presence/absence of compound, 0.1 μM: 0.1 μM compound co-applied with 2 μM GABA; for Oocyte electrophysiology, ratio of currents in presence/absence of compound, 0.1 μM / Oocyte electrophysiology, ratio of currents in presence/absence of compound, 1 μM / Oocyte electrophysiology, ratio of currents in presence/absence of compound, 10 μM: −70 mV; for Oocyte electrophysiology, ratio of currents in presence/absence of compound, 1 μM: 1 μM compound co-applied with 2 μM GABA; for Gating (10 μM), ratio of compound only current/2 μM GABA current: direct current gated by 10 μM compound in the absence of GABA; for Oocyte electrophysiology, ratio of currents in presence/absence of compound, 10 μM: 10 μM compound co-applied with 2 μM GABA
T1 construct: from linearized pBluescript vectors containing receptor coding regions; expressed in transfected cells; host or cells: Xenopus laevis oocytes injected with in vitro transcribed capped mRNA
T1 sequence (P62813 28-455, stated change not applied): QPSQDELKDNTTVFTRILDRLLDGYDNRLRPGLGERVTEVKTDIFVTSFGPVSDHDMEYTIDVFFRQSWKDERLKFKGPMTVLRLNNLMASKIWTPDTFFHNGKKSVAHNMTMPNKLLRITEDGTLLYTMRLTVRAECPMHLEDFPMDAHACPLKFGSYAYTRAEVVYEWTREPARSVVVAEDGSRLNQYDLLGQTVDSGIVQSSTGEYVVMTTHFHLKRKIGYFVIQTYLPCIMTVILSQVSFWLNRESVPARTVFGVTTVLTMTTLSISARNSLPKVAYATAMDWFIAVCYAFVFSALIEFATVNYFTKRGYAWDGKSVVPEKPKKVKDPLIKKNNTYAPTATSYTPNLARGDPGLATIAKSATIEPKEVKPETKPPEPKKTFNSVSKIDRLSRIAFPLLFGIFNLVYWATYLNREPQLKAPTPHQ
T1 sequence (P63138 26-474, stated change not applied): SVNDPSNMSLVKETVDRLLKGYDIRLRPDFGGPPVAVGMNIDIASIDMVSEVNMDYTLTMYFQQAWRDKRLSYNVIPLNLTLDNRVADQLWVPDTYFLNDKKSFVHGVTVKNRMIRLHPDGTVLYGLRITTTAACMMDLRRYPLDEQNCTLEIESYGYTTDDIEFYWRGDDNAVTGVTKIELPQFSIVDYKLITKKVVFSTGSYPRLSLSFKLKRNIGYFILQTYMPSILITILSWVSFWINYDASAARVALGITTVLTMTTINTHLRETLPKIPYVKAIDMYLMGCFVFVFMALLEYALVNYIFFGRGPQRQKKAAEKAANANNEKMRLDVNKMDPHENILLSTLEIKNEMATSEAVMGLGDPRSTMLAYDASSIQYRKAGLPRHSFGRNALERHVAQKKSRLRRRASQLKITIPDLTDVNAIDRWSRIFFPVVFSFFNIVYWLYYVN
T1 sequence (P18508 with tags, fused parts or gaps INS375LLRMFSFK): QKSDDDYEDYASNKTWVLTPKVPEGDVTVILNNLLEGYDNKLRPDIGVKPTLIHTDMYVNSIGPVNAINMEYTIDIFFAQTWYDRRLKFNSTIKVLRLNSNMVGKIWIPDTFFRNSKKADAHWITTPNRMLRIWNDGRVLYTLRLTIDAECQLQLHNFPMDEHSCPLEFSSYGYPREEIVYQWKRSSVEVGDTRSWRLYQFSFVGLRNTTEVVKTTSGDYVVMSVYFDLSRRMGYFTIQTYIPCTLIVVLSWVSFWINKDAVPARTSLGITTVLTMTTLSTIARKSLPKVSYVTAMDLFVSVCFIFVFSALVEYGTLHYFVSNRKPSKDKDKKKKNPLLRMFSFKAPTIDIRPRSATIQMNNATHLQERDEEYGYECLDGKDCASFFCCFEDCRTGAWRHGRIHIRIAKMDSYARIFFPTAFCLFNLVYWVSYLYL
Method: Stage V-VI oocytes were harvested from sexually mature female Xenopus laevis (Xenopus One, Northland, Mich.) under 0.1% tricaine (3-aminobenzoic acid ethyl ester) anesthesia. Oocytes were defolliculated by shaking for 20 min at 37° C. in collagenase (2 mg/ml) dissolved in calcium-free solution containing (in mM): 96 NaCl, 2 KCl, 1 MgCl2, and 5 HEPES at pH 7.4. Capped mRNA, encoding rat GABAA receptor α1, β2 and γ2L subunits was transcribed in vitro using the mMESSAGE mMachine Kit (Ambion, Austin, Tex.) from linearized pBluescript vectors containing receptor coding regions. Subunit transcripts were injected in equal parts (20-40 ng total RNA) 8-24 hours following defolliculation. Oocytes were incubated up to 5 days at 18° C. in ND96 medium containing (in mM): 96 NaCl, 1 KCl, 1 MgCl2, 2 CaCl2 and 5 HEPES at pH 7.4, supplemented with pyruvate (5 mM), penicillin (100 U/ml), streptomycin (100 μg/ml) and gentamycin (50 μg/ml). The cDNAs for the rat GABAA-receptor subunits were originally provided by A. Tobin, University of California, Los Angels (α1), P. Malherbe, Hoffman-La Roche, Switzerland (β2), C. Fraser, National Institute on Alcohol Abuse and Alcoholism (γ2L).
Two-electrode voltage-clamp experiments were performed with a Warner OC725 amplifier 2-5 days following RNA injection. The extracellular recording solution was ND96 medium with no supplements. Intracellular recording pipettes were filled with 3 M KCl and had open tip resistances of ˜1 MΩ. Drugs were applied from a common tip via a gravity-driven multibarrel drug-delivery system. Steroids were simultaneously co-applied with GABA. Cells were clamped at −70 mV for all experiments, and peak current during 20 s drug applications was measured. Data acquisition and analysis were performed with pCLAMP software (Axon Instruments, California). Statistical differences were determined using a two-tailed Student's t-test.
The GABA concentration used for the control response was 2 μM. Each compound was evaluated on at least four different oocytes at the concentrations indicated, and the results reported are the ratio of the currents measured in the presence/absence of added compound. (G) represents direct current gated by 10 μM compound in the absence of GABA, and this current is reported as the ratio of compound only current/2 μM GABA current. Error limits are calculated as standard error of the means.

[3] = molecular target: GABAA receptor ([35S]-TBPS binding site, rat brain cortical membranes); test: Displacement of [35S]-TBPS binding, rat brain cortical membranes; conditions: 5 μM GABA, 2 nM [35S]-TBPS; ± standard error of the means
Method: Rat brain cortical membranes were prepared with minor modifications of the method previously reported. (Hawkinson, J. E., et al., Correlation of Neuroactive Steroid Modulation of [^35S]t-Butylbicyclophosophorothionate and [^3H]Flunitrazepam Binding and γ-Aminobutyric AcidA Receptor Function, Mol. Pharmacol., 1994, 46, 977-985). Briefly, frozen rat cerebral cortices (Pel-freez, Rogers, Ak.) were thawed and homogenized in 10 volumes of ice-cold 0.32 M sucrose using a glass/Teflon pestle. The homogenate was centrifuged at 1500×g for 10 min at 4° C. The resultant supernatant was centrifuged at 10,000×g for 30 min at 4° C. The pellet (P2) from this centrifugation was resuspended in 200 mM NaCl, 50 mM potassium phosphate buffer, pH 7.4, and centrifuged at 10,000×g for 20 min at 4° C. This washing procedure was done a total of three times, and then pellets were resuspended in buffer (˜4 mL/brain) using a glass/Teflon pestle. The membrane suspension was aliquoted, frozen in liquid nitrogen, and stored at −80° C. prior to use.
[^35S]-TBPS Binding assays were done according to the procedure described previously (Hawkinson, J. E., et al., Correlation of Neuroactive Steroid Modulation of [^35S]t-Butylbicyclophosophorothionate and [^3H]Flunitrazepam Binding and γ-Aminobutyric AcidA Receptor Function, Mol. Pharmacol., 1994, 46, 977-985) with modifications. Briefly, aliquots of membrane solution (0.5 mg/mL final protein concentration in assay) were incubated with 5 μM GABA, 2 nM [^35S]-TBPS (45-120 Ci/mmol), and 5 μL aliquots of steroid in DMSO solution (final assay concentrations ranged from 1 nM to 10 μM), and brought to a final volume of 1 mL with 200 mM NaCl, 50 mM potassium phosphate buffer, pH 7.4. […] Assay tubes were incubated for 2 hr at room temperature. A Brandel (Gaithersburg, Md.) cell harvester was used for filtration of the assay tubes through Whatman/GF/C glass filter paper. Filter paper was rinsed with 4 mL of ice-cold buffer three times. Radioactivity bound to the filters was read by liquid scintillation counter and data was fit using Sigma Plot version 3.0 to the Hill equation i. f=Rmax/{1+([conc]/IC50)^n}
Where Rmax is the maximal effect, [conc] is steroid concentration, IC50 is the half-maximal inhibitor concentration and n is the Hill coefficient. Each data point was determined in triplicate and 2-3 full concentration-response curves were generated for each steroid.

SMILES	LRR ED50 (loss of righting response) [1]	EC50 ([1]; Xenopus laevis, 3 h)	Reversibility of steroid effect on GABA current (FIG. 1A) ([2]; 500 nM compound, 2 μM GABA, GABA recovery panel)	IC50 [3]	Oocyte electrophysiology, ratio of currents in presence/absence of compound, 0.1 μM [2]	Oocyte electrophysiology, ratio of currents in presence/absence of compound, 1 μM [2]	Gating (10 μM), ratio of compound only current/2 μM GABA current [2]	melting point	Oocyte electrophysiology, ratio of currents in presence/absence of compound, 10 μM [2]	LSR EC50 (loss of swimming response) [1]	EC50 [1]
CC(=O)[C@H]1CC[C@H]2[C@@H]3CC[C@H]4C[C@H](O)CC[C@]4(C)[C@H]3CC[C@]12C [Compound 1a, (3α,5α)-3-Hydroxypregnan-20-one, reference compound]	0.42 ± 0.04 µM	5.5 ± 0.48 µM	readily reversible								
CC(=O)[C@H]1CC[C@H]2[C@@H]3CC[C@@H]4C[C@H](O)CC[C@]4(C)[C@H]3CC[C@]12C [Compound 1b, (3α,5β)-3-Hydroxypregnan-20-one, reference compound]	0.063 ± 0.003 µM	0.3 µM									
C[C@]12CC[C@@H](O)C[C@@H]1CCC1C3CC[C@@H]4C(=O)CCC[C@]34CCC12 (stereo partly drawn) [Compound 2a, (3α,5α)-3-Hydroxy-13,24-cyclo-18,21-dinorcholan-20-one]	1.36 ± 0.20 µM	5.45 ± 0.07 µM		514 ± 64 nM	1.01 ± 0.03	1.44 ± 0.03	0 ± 0.1	200 to 202 °C			
C[C@]12CC[C@@H](O)C[C@H]1CCC1C3CC[C@@H]4C(=O)CCC[C@]34CCC12 (stereo partly drawn) [Compound 2b, (3α,5β)-3-Hydroxy-13,24-cyclo-18,21-dinorcholan-20-one]	0.94 ± 0.55 µM	5.48 ± 0.08 µM		1780 nM	0.93 ± 0.06	1.12 ± 0.14	−0.25 ± 0.21	220 to 222 °C	1.51 ± 0.13		
C[C@]12CC[C@@H](O)C[C@@H]1CCC1C3CC[C@@H]4CC(=O)CC[C@]34CCC12 (stereo partly drawn) [Compound 3a, (3α,5α)-3-Hydroxy-13,24-cyclo-18,21-dinorcholan-22-one]	2.37 ± 0.47 µM			1440 nM	1.30 ± 0.15	1.61 ± 0.22	0.06 ± 0.06	195 to 197 °C	2.93 ± 0.68	None @ 10	
CC12CCC(O)CC1CCC1C2CCC23CCC(=O)CC2CCC13 (stereo not drawn) [Compound 3b, (3α,5β)-3-Hydroxy-13,24-cyclo-18,21-dinorcholan-22-one]	2.47 ± 0.53 µM	9.43 ± 0.06 µM		3230 nM	0.97 ± 0.01	1.11 ± 0.14	−0.10 ± 0.06	175 to 177 °C	2.65 ± 0.33		
C[C@]12CC[C@@H](O)C[C@@H]1CCC1C3CCC4CCC(=O)C[C@@]43CCC12 (stereo partly drawn) [Compound 4a, (3α,5α)-3-Hydroxy-13,24-cyclo-18,21-dinorcholan-23-one]	1.12 ± 0.36 µM	3.58 ± 1.08 µM		334 ± 17 nM	1.39 ± 0.38	1.64 ± 0.15	0.32 ± 0.01	185 to 186 °C	6.49 ± 0.59		
C[C@]12CC[C@@H](O)C[C@H]1CCC1C3CCC4CCC(=O)C[C@@]43CCC12 (stereo partly drawn) [Compound 4b, (3α,5β)-3-Hydroxy-13,24-cyclo-18,21-dinorcholan-23-one]	1.44 ± 0.02 µM	3.55 ± 1.15 µM		899 ± 150 nM	0.97 ± 0.03	1.03 ± 0.08	0.01 ± 0.01	197 to 198 °C	3.17 ± 0.42		
CC12CCC(O)CC1CCC1C2CCC23C(=O)CCCC2CCC13 (stereo not drawn) [Compound 5a, (3α,5α)-3-Hydroxy-13,24-cyclo-18,21-dinorcholan-24-one]	0.32 ± 0.02 µM			301 ± 20 nM	1.22 ± 0.23	3.05 ± 0.79	0.39 ± 0.69	203 to 204 °C	10.73 ± 1.87		1.73 ± 0.03 µM
C=C1CC[C@]23CCC4C(CC[C@H]5C[C@H](O)CC[C@]45C)C2CC[C@@H]3C1 (stereo partly drawn) [Compound 53, (3α,5α)-22-Methylene-13,24-cyclo-18,21-dinorcholan-3-ol]				107000 ± 29600 nM				187 to 188 °C	1.05 ± 0.04		
